Molecules are shown by their SMILES.

For the first experiment, the system named is Lox-IMVI melanoma cell line. The experiment can be described thus: Lox-IMVI anti-proliferative assay (growth inhibition, Cell Titer-Glo). The class given is cell-based, human. Particulars: Homo sapiens; IC50 activity level in the cell-based Lox-IMVI anti-proliferative assay; read-out: Activity. In short, it runs like this:
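RPMI/10% FBS; cmpd 0.5 nM–10 μM, 3-fold ×10, duplicate, 0.2% DMSO final; 72 h, 37 °C, 5% CO2. ATP-luminescence readout at t0 and 72 h. IC50 = 50% of DMSO control, 4-parameter logistic fit.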
In general terms: In ATP-based viability assays light output follows the ATP content of the culture.
Take `Cc1c(Cl)ccc(Nc2nc3cnc(NC4CCOCC4)nc3n2[C@H]2CC[C@@H](C(N)=O)CC2)c1F` [Example 102, (1s,4s)-4-(8-(4-chloro-2-fluoro-3-methylphenylamino)-2-(tetrahydro-2H-pyran-4-ylamino)-9H-purin-9-yl)cyclohexanecarboxamide]: the IC50 was > 1000 nM.

Regarding `NC(=O)[C@H]1CC[C@@H](n2c(Nc3cccc(Cl)c3F)nc3cnc(NC4CCCC4)nc32)CC1` [Example 140, (1s,4s)-4-(8-(3-chloro-2-fluorophenylamino)-2-(cyclopentylamino)-9H-purin-9-yl)cyclohexanecarboxamide], the IC50 was > 1000 nM.

On to `NC(=O)[C@H]1CC[C@@H](n2c(Nc3c(F)cc(Cl)cc3Cl)nc3cnc(NC4CCC(F)(F)CC4)nc32)CC1` [Example 186, (1s,4s)-4-(8-(2,4-dichloro-6-fluorophenylamino)-2-(4,4-difluorocyclohexylamino)-9H-purin-9-yl)cyclohexanecarboxamide], for which the IC50 was < 250 nM.

Consider `NC(=O)[C@H]1CC[C@@H](n2c(Nc3c(F)ccc(Cl)c3F)nc3cnc(N[C@@H]4CC[C@@H](O)C4)nc32)CC1` [Example 217, (1S,4s)-4-(8-(3-chloro-2,6-difluorophenylamino)-2-((1R,3R)-3-hydroxycyclopentylamino)-9H-purin-9-yl)cyclohexanecarboxamide], for which the IC50 was > 1000 nM.

Regarding `Cc1cccc(F)c1Nc1nc2cnc(NC3CCOCC3)nc2n1[C@H]1CC[C@@H](C(N)=O)CC1` [Example 63, (1s,4s)-4-(8-(2-fluoro-6-methylphenylamino)-2-(tetrahydro-2H-pyran-4-ylamino)-9H-purin-9-yl)cyclohexanecarboxamide], the IC50 is > 1000 nM.

`NC(=O)[C@H]1CC[C@@H](n2c(Nc3c(Cl)cc(F)cc3Cl)nc3cnc(NC4CCC(F)(F)CC4)nc32)CC1` [Example 201, (1s,4s)-4-(8-(2,6-dichloro-4-fluorophenylamino)-2-(4,4-difluorocyclohexylamino)-9H-purin-9-yl)cyclohexanecarboxamide]: the IC50 lay in the range of 250 to 500 nM.

The same experiment, now with this note: Homo sapiens; Lox-IMVI anti-proliferative assay, IC50 activity level; read-out: Activity.
Consider `NC(=O)[C@H]1CC[C@@H](n2c(Nc3c(Cl)cc(OC(F)(F)F)cc3Cl)nc3cnc(NC4CCC(F)(F)CC4)nc32)CC1` [Example 596, (1s,4s)-4-(8-(2,6-dichloro-4-(trifluoromethoxy)phenylamino)-2-(4,4-difluorocyclohexylamino)-9H-purin-9-yl)cyclohexanecarboxamide], for which the IC50 was > 1000 nM.

In the case of `C[C@]1(C(N)=O)CC[C@@H](n2c(Nc3c(F)cc(C#N)cc3F)nc3cnc(NC4CCOCC4)nc32)CC1` [Example 524, (1s,4s)-4-(8-(4-cyano-2,6-difluorophenylamino)-2-(tetrahydro-2H-pyran-4-ylamino)-9H-purin-9-yl)-1-methylcyclohexanecarboxamide], the IC50 is < 250 nM.

For the molecule `COC(=O)N1CCCC(Nc2ncc3nc(Nc4c(F)cc(F)cc4F)n([C@H]4CC[C@@H](C(N)=O)CC4)c3n2)C1` (stereo partly drawn) [Example 403, (R)-methyl 3-(9-((1s,4S)-4-carbamoylcyclohexyl)-8-(2,4,6-tnfluorophenylamino)-9H-purin-2-ylamino)piperidine-1-carboxylate], the IC50 is > 1000 nM.

Consider `C[C@]1(C(N)=O)CC[C@H](n2c(Nc3c(F)cc(Cl)cc3F)nc3cnc(NC4CCCC4)nc32)CC1` [Example 489, (1r,4r)-4-(8-(4-chloro-2,6-difluorophenylamino)-2-(cyclopentylamino)-9H-purin-9-yl)-1-methylcyclohexanecarboxamide], for which the IC50 is > 1000 nM.

Consider `C[C@]1(C(N)=O)CC[C@@H](n2c(Nc3c(F)cc(C#N)cc3Cl)nc3cnc(N[C@@H]4CCC[C@H](O)C4)nc32)CC1` [Example 568, (1S,4s)-4-(8-(2-chloro-4-cyano-6-fluorophenylamino)-2-((1R,3S)-3-hydroxycyclohexylamino)-9H-purin-9-yl)-1-methylcyclohexanecarboxamide], for which the IC50 lay in the range of 250 to 500 nM.

Source of the values: patent publication US11590139B2, “Substituted aminopurine compounds, compositions thereof, and methods of treatment therewith” (Signal Pharmaceuticals, LLC, priority 2014, dated 2023).
